Reference: ChEMBL document CHEMBL1133852, “Stereoselective synthesis of 7 alpha- and 7 beta-aminocholestanol as potent fungicidal drugs” (2001)
Values after ≈ are worked out from the molar mass of the structure shown.

Assays:
Assay type in all cases: functional
Candida tropicalis [1] = experiment: Tested for antifungal activity against amp B resistant strain Candida tropicalis CIP 1275-81 after 48 hr incubation
Saccharomyces cerevisiae = experiment: Tested for antifungal activity against Saccharomyces cerevisiae ATCC 28 383 after 48 hr incubation; conditions: ATCC 28, 48 h
Candida tropicalis [2] = experiment: Tested for antifungal activity against 5-FC resistant strain Candida tropicalis CIP 1745-88 after 48 hr incubation
Candida albicans [3] = experiment: Tested for antifungal activity against azole resistant strain Candida albicans CIP 1760-88 after 48 hr incubation
Candida albicans [4] = experiment: Tested for antifungal activity against Candida albicans CIP 1180-79 after 48 h incubation

Compound	MIC (Candida tropicalis [1]) [µg/mL]	MIC (Saccharomyces cerevisiae) [µg/mL]	MIC (Candida tropicalis [2]) [µg/mL]	MIC (Candida albicans [3]) [µg/mL]	MIC (Candida albicans [4]) [µg/mL]
CC(C)CCCC(C)[C@H]1CC[C@H]2C3C(N)C=C4C[C@@H](O)CCC4(C)[C@H]3CCC12C (some centres undefined)	1.5 (≈ 3.73 µM)	2.4 (≈ 5.97 µM)	3.1 (≈ 7.72 µM)	2.3 (≈ 5.73 µM)	2.6 (≈ 6.47 µM)
C[C@@H]1[C@H](O)[C@@H](C)/C=C/C=C/C=C/C=C/C=C/C=C/C=C/[C@H](O[C@@H]2O[C@H](C)[C@@H](O)[C@H](N)[C@@H]2O)C[C@@H]2O[C@](O)(C[C@@H](O)C[C@@H](O)[C@H](O)CC[C@@H](O)C[C@@H](O)CC(=O)O[C@H]1C)C[C@H](O)[C@H]2C(=O)O [AMPHOTERICIN B]	12.5 (≈ 13.5 µM)	0.3 (≈ 0.325 µM)	–	–	0.4 (≈ 0.433 µM)
CC(C)CCC[C@@H](C)C1CC[C@H]2[C@@H]3[C@@H](N)CC4C[C@@H](O)CC[C@]4(C)[C@H]3CC[C@]12C (some centres undefined)	1.5 (≈ 3.72 µM)	0.4 (≈ 0.991 µM)	3.1 (≈ 7.68 µM)	1.5 (≈ 3.72 µM)	1.5 (≈ 3.72 µM)
Nc1nc(=O)[nH]cc1F [FLUCYTOSINE]	–	6.2 (≈ 48 µM)	> 100	–	50 (≈ 387 µM)
c1ccc(-c2ccc(C(c3ccccc3)n3ccnc3)cc2)cc1 (centres undefined) [BIFONAZOLE]	–	6.2 (≈ 20 µM)	–	50 (≈ 161 µM)	12.5 (≈ 40.3 µM)
CC(C)CCC[C@@H](C)C1CC[C@H]2[C@@H]3[C@H](N)CC4C[C@@H](O)CC[C@]4(C)[C@H]3CC[C@]12C (some centres undefined)	1.5 (≈ 3.72 µM)	3.1 (≈ 7.68 µM)	3.1 (≈ 7.68 µM)	3.1 (≈ 7.68 µM)	6.2 (≈ 15.4 µM)
